Experimental data published in the supplement of paper PMC13207355.

Assays:
Conditions in all cases: exposure time: 72 h
[1] = system: E28 (patient-derived glioblastoma stem cells of classical subtype); test: phenotypic distance (Euclidean, principal components) from DMSO controls (arbitrary units); higher = stronger morphological change
[2] = system: E34 (patient-derived glioblastoma stem cells of proneural subtype); test: as above
[3] = system: E31 (patient-derived glioblastoma stem cells of proneural subtype); test: as above
[4] = system: E13 (patient-derived glioblastoma stem cells of classical subtype); test: as above
[5] = system: E57 (patient-derived glioblastoma stem cells of mesenchymal subtype); test: as above
[6] = system: E21 (patient-derived glioblastoma stem cells of mesenchymal subtype); test: as above
[7] = system: FT3469 (normal neural stem cell line); test: as above
[8] = system: E28; test: surviving fraction (nuclei count normalised to DMSO); higher = more cells surviving (less toxic)
[9] = system: E34; test: as above
[10] = system: E31; test: as above
[11] = system: E13; test: as above
[12] = system: E57; test: as above
[13] = system: E21; test: as above
[14] = system: FT3469; test: as above
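Throughout, for phenotypic distance (Euclidean, principal components) from DMSO controls: cell Painting imaging in 384-well plates, CellProfiler features reduced to at least 20 principal components, Euclidean distance versus same-plate DMSO vehicle wells (0.1% v/v), median over six images per well.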
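Throughout, for surviving fraction (nuclei count normalised to DMSO): nuclei counted by high-content imaging of Hoechst-stained cells in laminin-coated 384-well plates, relative to 0.1% DMSO vehicle wells, with staurosporine as cell-death control.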

CC[n+]1c(/C=C/C=C2/N(C)c3ccccc3C2(C)C)sc2ccccc21
Conditions	phenotypic distance	surviving fraction
[1], 4.1 nM	0.748	–
[1], 12.3 nM	0.775	–
[1], 37 nM	1.34	–
[1], 111.1 nM	1.61	–
[1], 333.3 nM	3.13	–
[1], 1000 nM	2.8	–
[1], 3000 nM	5.04	–
[2], 4.1 nM	1.1	–
[2], 12.3 nM	1.65	–
[2], 37 nM	1.13	–
[2], 111.1 nM	2.37	–
[2], 333.3 nM	2.3	–
[2], 1000 nM	2.55	–
[2], 3000 nM	3.35	–
[3], 4.1 nM	2.01	–
[3], 12.3 nM	1.15	–
[3], 37 nM	1.51	–
[3], 111.1 nM	1.16	–
[3], 333.3 nM	3.28	–
[3], 1000 nM	4.43	–
[3], 3000 nM	3.86	–
[4], 4.1 nM	1.39	–
[4], 12.3 nM	1.38	–
[4], 37 nM	2.78	–
[4], 111.1 nM	3.54	–
[4], 333.3 nM	3.71	–
[4], 1000 nM	3.71	–
[4], 3000 nM	3.71	–
[5], 4.1 nM	1.08	–
[5], 12.3 nM	0.887	–
[5], 37 nM	1.53	–
[5], 111.1 nM	2.52	–
[5], 333.3 nM	6.37	–
[5], 1000 nM	5.7	–
[5], 3000 nM	7.93	–
[6], 4.1 nM	1.08	–
[6], 12.3 nM	1.6	–
[6], 37 nM	2.31	–
[6], 111.1 nM	3.28	–
[6], 333.3 nM	3.93	–
[6], 1000 nM	3.44	–
[6], 3000 nM	2.74	–
[7], 4.1 nM	1.31	–
[7], 12.3 nM	1.56	–
[7], 37 nM	1.69	–
[7], 111.1 nM	1.86	–
[7], 333.3 nM	1.62	–
[7], 1000 nM	3.78	–
[7], 3000 nM	3.43	–
[8], 4.1 nM	–	0.916
[8], 12.3 nM	–	0.86
[8], 37 nM	–	0.707
[8], 111.1 nM	–	0.596
[8], 333.3 nM	–	0.429
[8], 1000 nM	–	0.42
[8], 3000 nM	–	0.307
[9], 4.1 nM	–	0.967
[9], 12.3 nM	–	0.902
[9], 37 nM	–	0.834
[9], 111.1 nM	–	0.572
[9], 333.3 nM	–	0.552
[9], 1000 nM	–	0.591
[9], 3000 nM	–	0.516
[10], 4.1 nM	–	1.03
[10], 12.3 nM	–	0.703
[10], 37 nM	–	0.714
[10], 111.1 nM	–	0.446
[10], 333.3 nM	–	0.21
[10], 1000 nM	–	0.229
[10], 3000 nM	–	0.277
[11], 4.1 nM	–	0.616
[11], 12.3 nM	–	0.567
[11], 37 nM	–	0.47
[11], 111.1 nM	–	0.362
[11], 333.3 nM	–	0.403
[11], 1000 nM	–	0.361
[11], 3000 nM	–	0.381
[12], 4.1 nM	–	0.878
[12], 12.3 nM	–	0.881
[12], 37 nM	–	0.793
[12], 111.1 nM	–	0.614
[12], 333.3 nM	–	0.337
[12], 1000 nM	–	0.324
[12], 3000 nM	–	0.294
[13], 4.1 nM	–	0.792
[13], 12.3 nM	–	0.825
[13], 37 nM	–	0.652
[13], 111.1 nM	–	0.54
[13], 333.3 nM	–	0.471
[13], 1000 nM	–	0.462
[13], 3000 nM	–	0.445
[14], 4.1 nM	–	0.855
[14], 12.3 nM	–	0.668
[14], 37 nM	–	0.696
[14], 111.1 nM	–	0.627
[14], 333.3 nM	–	0.645
[14], 1000 nM	–	0.622
[14], 3000 nM	–	0.578

COc1cc2c(cc1-c1c(C)noc1C)ncc1[nH]c(=O)n([C@H](C)c3ccccn3)c12
Conditions	phenotypic distance	surviving fraction
[1], 4.1 nM	0.949	–
[1], 12.3 nM	0.901	–
[1], 37 nM	0.621	–
[1], 111.1 nM	1.03	–
[1], 333.3 nM	1.35	–
[1], 1000 nM	1.72	–
[1], 3000 nM	1.77	–
[2], 4.1 nM	1.02	–
[2], 12.3 nM	0.609	–
[2], 37 nM	0.687	–
[2], 111.1 nM	1.15	–
[2], 333.3 nM	1.46	–
[2], 1000 nM	1.79	–
[2], 3000 nM	2.96	–
[3], 4.1 nM	0.332	–
[3], 12.3 nM	0.436	–
[3], 37 nM	0.51	–
[3], 111.1 nM	0.757	–
[3], 333.3 nM	0.725	–
[3], 1000 nM	1.98	–
[3], 3000 nM	2.07	–
[4], 4.1 nM	0.723	–
[4], 12.3 nM	0.923	–
[4], 37 nM	3.5	–
[4], 111.1 nM	1.73	–
[4], 333.3 nM	2.84	–
[4], 1000 nM	3.74	–
[4], 3000 nM	3.72	–
[5], 4.1 nM	4.06	–
[5], 12.3 nM	7.45	–
[5], 37 nM	0.734	–
[5], 111.1 nM	1.05	–
[5], 333.3 nM	1.91	–
[5], 1000 nM	3.16	–
[5], 3000 nM	3.48	–
[6], 4.1 nM	0.956	–
[6], 12.3 nM	0.64	–
[6], 37 nM	0.943	–
[6], 111.1 nM	1.42	–
[6], 333.3 nM	2.79	–
[6], 1000 nM	4.44	–
[6], 3000 nM	6.05	–
[7], 4.1 nM	1.21	–
[7], 12.3 nM	1.17	–
[7], 37 nM	1.25	–
[7], 111.1 nM	1.2	–
[7], 333.3 nM	1.04	–
[7], 1000 nM	1.53	–
[7], 3000 nM	3.06	–
[8], 4.1 nM	–	1.05
[8], 12.3 nM	–	0.934
[8], 37 nM	–	1.14
[8], 111.1 nM	–	0.933
[8], 333.3 nM	–	0.976
[8], 1000 nM	–	0.652
[8], 3000 nM	–	0.782
[9], 4.1 nM	–	0.897
[9], 12.3 nM	–	1.11
[9], 37 nM	–	0.994
[9], 111.1 nM	–	0.972
[9], 333.3 nM	–	1.03
[9], 1000 nM	–	0.882
[9], 3000 nM	–	0.683
[10], 4.1 nM	–	1.12
[10], 12.3 nM	–	0.852
[10], 37 nM	–	1.18
[10], 111.1 nM	–	0.997
[10], 333.3 nM	–	1.22
[10], 1000 nM	–	0.817
[10], 3000 nM	–	0.628
[11], 4.1 nM	–	0.96
[11], 12.3 nM	–	0.821
[11], 37 nM	–	0.885
[11], 111.1 nM	–	0.757
[11], 333.3 nM	–	0.79
[11], 1000 nM	–	0.562
[11], 3000 nM	–	0.473
[12], 4.1 nM	–	1.04
[12], 12.3 nM	–	0.964
[12], 37 nM	–	1.14
[12], 111.1 nM	–	1.08
[12], 333.3 nM	–	0.915
[12], 1000 nM	–	0.653
[12], 3000 nM	–	0.533
[13], 4.1 nM	–	0.942
[13], 12.3 nM	–	1.05
[13], 37 nM	–	0.96
[13], 111.1 nM	–	0.873
[13], 333.3 nM	–	0.78
[13], 1000 nM	–	0.567
[13], 3000 nM	–	0.391
[14], 4.1 nM	–	0.954
[14], 12.3 nM	–	0.984
[14], 37 nM	–	0.981
[14], 111.1 nM	–	0.987
[14], 333.3 nM	–	0.837
[14], 1000 nM	–	0.73
[14], 3000 nM	–	0.654

COc1cc2ncnc(Nc3cccc(Br)c3)c2cc1OC
Conditions	phenotypic distance	surviving fraction
[1], 4.1 nM	0.79	–
[1], 12.3 nM	0.832	–
[1], 37 nM	0.627	–
[1], 111.1 nM	1.04	–
[1], 333.3 nM	1.13	–
[1], 1000 nM	1.23	–
[1], 3000 nM	0.966	–
[2], 4.1 nM	0.973	–
[2], 12.3 nM	0.835	–
[2], 37 nM	1.15	–
[2], 111.1 nM	1.03	–
[2], 333.3 nM	1.14	–
[2], 1000 nM	1.16	–
[2], 3000 nM	2.27	–
[3], 4.1 nM	0.794	–
[3], 12.3 nM	0.613	–
[3], 37 nM	0.892	–
[3], 111.1 nM	0.732	–
[3], 333.3 nM	1.01	–
[3], 1000 nM	0.889	–
[3], 3000 nM	1.3	–
[4], 4.1 nM	3.14	–
[4], 12.3 nM	0.603	–
[4], 37 nM	1.05	–
[4], 111.1 nM	4.7	–
[4], 333.3 nM	3.33	–
[4], 1000 nM	1.72	–
[4], 3000 nM	1.27	–
[5], 4.1 nM	0.927	–
[5], 12.3 nM	1.19	–
[5], 37 nM	1.4	–
[5], 111.1 nM	1.37	–
[5], 333.3 nM	1.71	–
[5], 1000 nM	1.59	–
[5], 3000 nM	1.98	–
[6], 4.1 nM	0.609	–
[6], 12.3 nM	1.01	–
[6], 37 nM	0.8	–
[6], 111.1 nM	3.3	–
[6], 333.3 nM	0.937	–
[6], 1000 nM	1.35	–
[6], 3000 nM	5.43	–
[7], 4.1 nM	0.686	–
[7], 12.3 nM	0.611	–
[7], 37 nM	0.986	–
[7], 111.1 nM	0.512	–
[7], 333.3 nM	0.982	–
[7], 1000 nM	0.82	–
[7], 3000 nM	1.29	–
[8], 4.1 nM	–	1.07
[8], 12.3 nM	–	0.99
[8], 37 nM	–	0.899
[8], 111.1 nM	–	0.898
[8], 333.3 nM	–	0.963
[8], 1000 nM	–	0.944
[8], 3000 nM	–	0.918
[9], 4.1 nM	–	1.05
[9], 12.3 nM	–	0.884
[9], 37 nM	–	1.07
[9], 111.1 nM	–	1.12
[9], 333.3 nM	–	0.965
[9], 1000 nM	–	1.07
[9], 3000 nM	–	0.81
[10], 4.1 nM	–	1.05
[10], 12.3 nM	–	0.755
[10], 37 nM	–	0.826
[10], 111.1 nM	–	0.837
[10], 333.3 nM	–	0.877
[10], 1000 nM	–	0.767
[10], 3000 nM	–	0.97
[11], 4.1 nM	–	0.967
[11], 12.3 nM	–	1.02
[11], 37 nM	–	0.972
[11], 111.1 nM	–	0.952
[11], 333.3 nM	–	1.14
[11], 1000 nM	–	1.04
[11], 3000 nM	–	0.903
[12], 4.1 nM	–	0.926
[12], 12.3 nM	–	0.974
[12], 37 nM	–	0.909
[12], 111.1 nM	–	0.83
[12], 333.3 nM	–	0.818
[12], 1000 nM	–	0.793
[12], 3000 nM	–	0.656
[13], 4.1 nM	–	1.02
[13], 12.3 nM	–	0.921
[13], 37 nM	–	0.943
[13], 111.1 nM	–	0.867
[13], 333.3 nM	–	1.06
[13], 1000 nM	–	0.88
[13], 3000 nM	–	0.346
[14], 4.1 nM	–	0.879
[14], 12.3 nM	–	0.996
[14], 37 nM	–	0.905
[14], 111.1 nM	–	0.858
[14], 333.3 nM	–	1.05
[14], 1000 nM	–	1.04
[14], 3000 nM	–	1.06
